Data published in paper PMC12024264, “Frog Skin Peptides Hylin-a1, AR-23, and RV-23: Promising Tools Against Carbapenem-Resistant Escherichia coli and Klebsiella pneumoniae Infections” (Antibiotics, 2025).
≈ marks a conversion by molar mass, not a printed value. Read-outs that look alike come from different tables or passages of the source.

What was measured:
Assay in all cases: Antibiotic resistance profile of clinical isolate (Table S1)
[1] = tested on: K. pneumoniae 1746; assay type: cell-based, Klebsiella pneumoniae
Procedure: (§1) Each strain was grown in Mueller Hinton Broth (MH Broth), and 5 × 10^5 CFU/mL was used to evaluate antibacterial activity. Clinical carbapenem-resistant K. pneumoniae and E. coli isolates were collected at the AOU of Virology and Microbiology of the University of Campania “Luigi Vanvitelli”. […]
(§2) Table S1. Antibiotic resistance profile of K. pneumoniae and E. coli clinical isolates . MIC: Minimum Inhibitory
(§3) Concentration was expressed in µg/mL; S: Sensible; I: Intermediate; R: Resistant.
(§4) Antibiotic Resistance Profile of the Clinical Isolated Bacteria
(§5) Antibiotics MIC (µg/mL) Interpretation […]

[2] = tested on: K. pneumoniae 311; assay type: cell-based, Klebsiella pneumoniae
Procedure: as §1, §2, §3, §4, §5

[3] = tested on: K. pneumoniae 1745; assay type: cell-based, Klebsiella pneumoniae
Procedure: as §1, §2, §3, §4, §5

[4] = tested on: K. pneumoniae 1711; assay type: cell-based, Klebsiella pneumoniae
Procedure: as §1, §2, §3, §4, §5

[5] = tested on: E. coli 1441; assay type: cell-based, Escherichia coli
Procedure: as §1, §2, §3, §4, §5

[6] = tested on: E. coli 3140; assay type: cell-based, Escherichia coli
Procedure: as §1, §2, §3, §4, §5

[7] = tested on: E. coli 1376; assay type: cell-based, Escherichia coli
Procedure: as §1, §2, §3, §4, §5

[8] = tested on: E. coli 2267; assay type: cell-based, Escherichia coli
Procedure: as §1, §2, §3, §4, §5

[9] = tested on: E. coli 716; assay type: cell-based, Escherichia coli
Procedure: as §1, §2, §3, §4, §5

[10] = Klebsiella pneumoniae, Table S1, K. pneumoniae 1745, read-out: MIC
[11] = Klebsiella pneumoniae, Table S1, K. pneumoniae 1711, read-out: MIC
[12] = Escherichia coli, Table S1, E. coli 2267, read-out: MIC

| Compound | MIC ([1]; Klebsiella pneumoniae, 1746) [µg/mL] | Interpretation ([1]; Table S1, K. pneumoniae 1746) | MIC ([2]; Klebsiella pneumoniae, 311) [µg/mL] | Interpretation ([2]; Table S1, K. pneumoniae 311) | MIC [3, 10] [µg/mL] | Interpretation ([3]; Table S1, K. pneumoniae 1745) | MIC [4, 11] [µg/mL] | Interpretation ([4]; Table S1, K. pneumoniae 1711) | MIC ([5]; Escherichia coli, 1441) [µg/mL] | Interpretation ([5]; Table S1, E. coli 1441) | MIC ([6]; Escherichia coli, 3140) [µg/mL] | Interpretation ([6]; Table S1, E. coli 3140) | MIC ([7]; Escherichia coli, 1376) [µg/mL] | Interpretation ([7]; Table S1, E. coli 1376) | MIC [8, 12] [µg/mL] | Interpretation ([8]; Table S1, E. coli 2267) | MIC ([9]; Escherichia coli, 716) [µg/mL] | Interpretation ([9]; Table S1, E. coli 716) | MIC ([1]; Table S1, K. pneumoniae 1746) | MIC ([2]; Table S1, K. pneumoniae 311) | also measured |
| --- | --- | --- | --- | --- | --- | --- | --- | --- | --- | --- | --- | --- | --- | --- | --- | --- | --- | --- | --- | --- | --- |
| NCC[C@H](O)C(=O)N[C@@H]1C[C@H](N)[C@@H](O[C@H]2O[C@H](CN)[C@@H](O)[C@H](O)[C@H]2O)[C@H](O)[C@H]1O[C@H]1O[C@H](CO)[C@@H](O)[C@H](N)[C@H]1O [Amikacin] | ≤ 4 | S | ≤ 4 | S | 8 (≈ 13.7 µM) | S | ≤ 4 | S | ≤ 4 | S | ≤ 4 | S | > 16 | R | ≤ 4 | S | ≤ 4 | S | – | – | – |
| Piperacillin/tazobactam | – | R | – | R | – | R | – | R | – | R | – | R | – | R | – | R | – | R | 32/4 | > 64/4 | MIC ([3]; Table S1, K. pneumoniae 1745): > 64/4; MIC ([4]; Table S1, K. pneumoniae 1711): > 64/4; MIC ([5]; Table S1, E. coli 1441): > 64/4; MIC ([6]; Table S1, E. coli 3140): > 64/4; MIC ([7]; Table S1, E. coli 1376): > 64/4; MIC ([8]; Table S1, E. coli 2267): > 64/4; MIC ([9]; Table S1, E. coli 716): > 64/4 |
| C[C@@H](O)[C@H]1C(=O)N2C(C(=O)O)=C(SCCN=CN)C[C@H]12 [Imipenem] | 4 (≈ 13.4 µM) | I | 2 (≈ 6.68 µM) | S | > 8 | R | > 8 | R | 4 (≈ 13.4 µM) | I | 2 (≈ 6.68 µM) | S | > 8 | R | > 8 | R | > 8 | R | – | – | – |
| CC1(C)S[C@@H]2[C@H](NC(=O)[C@H](N)c3ccccc3)C(=O)N2[C@H]1C(=O)O [Ampicillin] | > 8 | R | > 8 | R | – | R | – | R | > 8 | R | > 8 | R | > 8 | R | – | R | > 8 | R | – | – | MIC ([3]; Klebsiella pneumoniae, 1745): > 8 µg/mL; MIC ([4]; Klebsiella pneumoniae, 1711): > 8 µg/mL; MIC ([8]; Escherichia coli, 2267): > 8 µg/mL |
| CNC(C)C1CCC(N)C(OC2C(N)CC(N)C(OC3OCC(C)(O)C(NC)C3O)C2O)O1 (stereo not drawn) [Gentamicin] | 2 (≈ 4.19 µM) | S | > 4 | R | – | R | – | R | ≤ 1 | S | ≤ 1 | S | > 4 | R | – | S | ≤ 1 | S | – | – | MIC ([3]; Klebsiella pneumoniae, 1745): > 4 µg/mL; MIC ([4]; Klebsiella pneumoniae, 1711): > 4 µg/mL; MIC ([8]; Escherichia coli, 2267): ≤ 1 µg/mL |
| Ceftazidime-avibactam | – | R | – | S | – | R | – | R | – | S | – | S | – | S | – | S | – | S | > 8/4 | 1/ 4 | MIC ([3]; Table S1, K. pneumoniae 1745): > 8/4; MIC ([4]; Table S1, K. pneumoniae 1711): > 8/4; MIC ([8]; Table S1, E. coli 2267): 8/4; MIC ([9]; Table S1, E. coli 716): 8/4 |
